Measurements taken from patent US7579356B2, “Thia-tetraazaacenaphthylene kinase inhibitors” (Janssen Pharmaceutica NV, priority 2005, dated 2009).

Tests used:
Assay type in all cases: biochemical
HER-2 = biological target: T1, HER-2 (Homo sapiens, UniProt P04626); assay: HER-2 Kinase Assay; details: for IC50: value in parentheses; for inhibition at 1 µM: test concentration of 1 μM
T1 construct: His6 with thrombin site (N); purchased Proqinase (Freiburg, Germany)
In short: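 GST/HIS6-tagged HER-2 aa 679–1255 kinase with biotinylated polyGluTyr (1.5 ng/μL), 1 μM ATP plus γ-33P-ATP, Mg2+/Mn2+, DTT, Hepes pH 7.5; 1 h at 30 °C. Substrate phosphorylation captured on streptavidin scintillation plates after EDTA/PBS washes; values are % inhibition at 1 μM or IC50.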

c-Src kinase (human) = biological target: T2, c-Src kinase (human) (Homo sapiens, UniProt P12931); assay: c-Src Kinase Assay; details: test concentration of 2 μM; multiple values are separate assay results
T2 construct: purchased Upstate Biotechnology, Lake Placid, N.Y
Experimental: A mixture of a 10× kinase buffer (80 mM MOPS at pH 7.0, 2 mM EDTA and 100 mM Magnesium Chloride), ATP (5 μM final from a 10 mM stock), a Cdc2 peptide KVEKIGEGTYGVVYK (100 μM final from a 2.5 mM stock), γ-^33P ATP (10 μCl/μL stock) and water (for a total of 20 μL/well) was added to each well of a Streptavidin Flashplate.
Test compound in 100% DMSO (0.5 μL) was added to the appropriate wells. Diluted c-Src kinase (human) (Accession Number SWISS-PROT P12931) (Upstate Biotechnology, Lake Placid, N.Y.) (diluted in a buffer consisting of 20 mM MOPS at pH 7.0, 1 mM EDTA, β-mercaptoethanol (0.1%), Brij-35 (0.01%), glycerol (5%), and 1 mg/mL bovine serum albumin) (2.5 μL) was added to the wells to initiate the reactions. The reaction plates were incubated at 30° C. for 40 min. The reaction was terminated by the addition of a 3% phosphoric acid solution (5 μL). The reaction product (10 μL) was spotted onto a P30 filtermat and washed for 5 minutes in phosphoric acid (75 mM). The wash sequence was repeated two more times, followed with one final wash in methanol. The plates were then dried, sealed and read on the TopCount scintillation counter after adding 30 μL scintillation fluid.
(§1) The c-Src inhibition values were derived using the percent inhibition formula provided in Example 164 and are shown as percent in Table 2 at a test concentration of 2 μM. For those compounds with an IC50, the IC50 value in μM is shown in parentheses. For compounds with multiple test values, each value represents a separate assay result.

EGFR = biological target: T3, EGFR (Homo sapiens, UniProt P00533); assay: EGFR Kinase Assay; details: for IC50: GST-EGFR, ATP 5 μM; for inhibition at 2 µM: test concentration of 2 μM, compounds without an IC50, read-out: EGFR inhibition in percent
T3 construct: The intracellular portion of EGFR started at nucleotide 2189 (corresponding to amino acid 667) and ended at the termination codon; made in house; host or cells: Sf9 insect cells (baculovirus)
In short: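 GST-fused human EGFR intracellular domain (from aa 667), Sf9-expressed, phosphorylated biotinylated polyGluTyr with 5 μM ATP plus γ-33P ATP in Tris pH 8.0, MgCl2, vanadate, 1 mM DTT, 1 h at 30 °C. Streptavidin Flashplate scintillation read; triplicate 16-point half-log series from 200 uM; IC50 from % inhibition vs log concentration, else % inhibition at 2 μM.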

Lyn kinase (human) = biological target: T4, Lyn kinase (human) (Homo sapiens, UniProt P07948); assay: Lyn Kinase Assay; details: test concentration of 2 μM
T4 construct: purchased Upstate Biotechnology, Lake Placid, N.Y
Experimental: A mixture of a 10× kinase buffer (500 mM MOPS at pH 7.5, 1 mM EGTA, 1 mM Sodium Vanadate, 1% β-mercaptoethanol and 100 mM Magnesium Acetate), ATP (5 μM final from a 10 mM stock), polyGluTyr (0.1 mg/mL final from a 1 mg/mL stock), γ-^33P ATP (10 μCl/μL stock) and water (for a total of 20 μL/well) was added to each well of a Streptavidin Flashplate.
Test compound in 100% DMSO (0.5 μL) was added to the appropriate wells. Diluted Lyn kinase (human)(Accession Number EMBL M16038) (Upstate Biotechnology, Lake Placid, N.Y.) (diluted in a buffer consisting of 50 mM Tris at pH 7.5, 0.1 mM EGTA, Sodium Vanadate (0.1 mM), β-mercaptoethanol (0.1%) and 1 mg/mL bovine serum albumin) (2.5 μL) was added to the wells to initiate the reactions.
The reaction plates were incubated at 30° C. for 40 min. The reaction was terminated by the addition of a 3% phosphoric acid solution (5 μL). The reaction product (10 μL) was spotted onto a P30 filtermat and washed for 5 minutes in phosphoric acid (75 mM). The wash sequence was repeated two more times, followed with one final wash in methanol. The plates were then dried, sealed and read on the TopCount scintillation counter after adding 30 μL scintillation fluid.
as §1, with “The Lyn” for “The c-Src”, “derived according to” for “derived using”, “the procedure described” for “the percent inhibition formula provided”, “Table 3” for “Table 2”

T1 sequence (P04626 679-1255): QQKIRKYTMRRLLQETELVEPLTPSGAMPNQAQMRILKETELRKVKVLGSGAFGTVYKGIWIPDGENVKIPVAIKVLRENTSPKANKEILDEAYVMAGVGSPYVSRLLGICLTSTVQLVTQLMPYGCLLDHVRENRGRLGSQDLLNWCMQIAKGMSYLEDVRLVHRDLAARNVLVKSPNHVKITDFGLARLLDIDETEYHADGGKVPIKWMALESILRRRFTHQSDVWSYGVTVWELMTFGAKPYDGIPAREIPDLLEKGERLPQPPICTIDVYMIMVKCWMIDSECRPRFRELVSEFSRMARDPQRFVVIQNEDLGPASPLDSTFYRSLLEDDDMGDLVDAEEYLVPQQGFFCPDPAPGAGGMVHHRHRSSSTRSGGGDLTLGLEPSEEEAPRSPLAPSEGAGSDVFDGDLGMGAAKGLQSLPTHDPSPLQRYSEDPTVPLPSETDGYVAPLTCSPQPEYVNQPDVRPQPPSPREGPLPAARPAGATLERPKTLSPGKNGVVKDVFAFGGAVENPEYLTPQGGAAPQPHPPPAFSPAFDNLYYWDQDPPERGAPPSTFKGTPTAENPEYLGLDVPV
T4 sequence (P07948 whole entry): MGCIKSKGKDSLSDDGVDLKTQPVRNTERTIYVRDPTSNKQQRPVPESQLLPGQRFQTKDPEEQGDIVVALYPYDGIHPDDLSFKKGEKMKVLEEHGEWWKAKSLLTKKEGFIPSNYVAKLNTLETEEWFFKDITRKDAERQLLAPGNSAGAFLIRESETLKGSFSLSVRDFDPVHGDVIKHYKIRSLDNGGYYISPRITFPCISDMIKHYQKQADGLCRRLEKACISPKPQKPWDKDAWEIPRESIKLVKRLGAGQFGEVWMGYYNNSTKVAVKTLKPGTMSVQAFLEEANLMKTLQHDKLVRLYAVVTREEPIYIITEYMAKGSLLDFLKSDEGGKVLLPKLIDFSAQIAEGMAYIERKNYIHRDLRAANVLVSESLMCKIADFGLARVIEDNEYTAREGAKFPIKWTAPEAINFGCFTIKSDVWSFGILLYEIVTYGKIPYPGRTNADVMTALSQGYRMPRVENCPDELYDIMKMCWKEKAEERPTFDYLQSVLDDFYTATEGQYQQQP
T3 sequence (P00533 669-1210 limits assumed): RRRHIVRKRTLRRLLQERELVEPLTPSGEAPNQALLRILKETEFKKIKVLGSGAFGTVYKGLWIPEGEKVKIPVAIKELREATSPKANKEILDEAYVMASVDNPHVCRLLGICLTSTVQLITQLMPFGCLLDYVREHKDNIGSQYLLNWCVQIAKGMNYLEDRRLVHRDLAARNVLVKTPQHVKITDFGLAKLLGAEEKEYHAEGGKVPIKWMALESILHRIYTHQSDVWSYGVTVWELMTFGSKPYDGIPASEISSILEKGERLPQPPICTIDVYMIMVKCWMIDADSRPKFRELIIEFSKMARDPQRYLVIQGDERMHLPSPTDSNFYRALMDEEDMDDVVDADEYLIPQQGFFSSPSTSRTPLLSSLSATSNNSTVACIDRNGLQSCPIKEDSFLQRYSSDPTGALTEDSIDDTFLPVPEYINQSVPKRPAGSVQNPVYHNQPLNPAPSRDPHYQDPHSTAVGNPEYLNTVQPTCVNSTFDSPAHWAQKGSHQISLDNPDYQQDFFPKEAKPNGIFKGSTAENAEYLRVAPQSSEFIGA
T2 sequence (P12931 whole entry): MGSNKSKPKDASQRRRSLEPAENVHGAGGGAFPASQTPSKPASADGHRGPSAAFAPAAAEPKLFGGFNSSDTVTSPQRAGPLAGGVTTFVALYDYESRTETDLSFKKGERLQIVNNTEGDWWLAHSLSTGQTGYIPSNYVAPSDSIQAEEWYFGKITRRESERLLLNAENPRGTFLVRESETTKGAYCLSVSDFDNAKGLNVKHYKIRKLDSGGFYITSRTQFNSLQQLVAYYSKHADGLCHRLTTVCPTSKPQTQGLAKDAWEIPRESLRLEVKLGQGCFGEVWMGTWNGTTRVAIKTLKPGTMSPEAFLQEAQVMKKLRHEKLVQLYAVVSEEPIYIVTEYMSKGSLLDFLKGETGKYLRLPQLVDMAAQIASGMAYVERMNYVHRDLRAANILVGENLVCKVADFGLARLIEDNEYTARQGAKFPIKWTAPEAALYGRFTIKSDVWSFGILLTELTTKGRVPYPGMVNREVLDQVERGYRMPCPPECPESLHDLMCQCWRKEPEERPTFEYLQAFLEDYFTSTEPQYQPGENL

Compound	IC50 (HER-2)	inhibition at 2 µM (c-Src kinase (human))	IC50 (EGFR)	inhibition at 2 µM (Lyn kinase (human))	inhibition at 1 µM (HER-2)	inhibition at 2 µM (EGFR)
O=C(O)c1sc2ncnc3c2c1NC(=O)N3c1ccc(Oc2ccccc2)cc1 [Cpd 168, 4-oxo-5-(4-phenoxy-phenyl)-4,5-dihydro-3H-1-thia-3,5,6,8-tetraaza-acenaphthylene-2-carboxylic acid]	12200 nM	-21%	452 nM	28%	–	–
COc1ccc(N2C(=O)Nc3c(C(=O)Nc4ccc(OCCN5CCOCC5)c(OC)c4)sc4ncnc2c34)c(F)c1 [Cpd 67, 5-(2-fluoro-4-methoxy-phenyl)-4-oxo-4,5-dihydro-3H-1-thia-3,5,6,8-tetraaza-acenaphthylene-2-carboxylic acid [3-methoxy-4-(2-morpholin-4-yl-ethoxy)-phenyl]-amide]	965 nM	-17%	103 nM	22.5%	51%	–
Cc1cccc(Cl)c1N1C(=O)Nc2c(C(=O)Nc3ccc(CN4CCCCC4)cc3)sc3ncnc1c23 [Cpd 147, 5-(2-chloro-6-methyl-phenyl)-4-oxo-4,5-dihydro-3H-1-thia-3,5,6,8-tetraaza-acenaphthylene-2-carboxylic acid (4-piperidin-1-ylmethyl-phenyl)-amide]	–	61%	–	76%	17%	43%
O=C(Nc1ccc(CN2CCOCC2)cc1)c1sc2ncnc3c2c1NC(=O)N3c1ccc(Br)cc1F [Cpd 53, 5-(4-bromo-2-fluoro-phenyl)-4-oxo-4,5-dihydro-3H-1-thia-3,5,6,8-tetraaza-acenaphthylene-2-carboxylic acid (4-morpholin-4-ylmethyl-phenyl)-amide]	–	11%	–	17%	-13%	34%
O=C(Nc1ccc(CN2CCOCC2)cc1)c1sc2ncnc3c2c1NC(=O)N3c1ccc(F)cc1Cl [Cpd 16, 5-(2-chloro-4-fluoro-phenyl)-4-oxo-4,5-dihydro-3H-1-thia-3,5,6,8-tetraaza-acenaphthylene-2-carboxylic acid (4-morpholin-4-ylmethyl-phenyl)-amide]	5440 nM	52%	223 nM	68%	54%	–
COc1cc(N2C(=O)Nc3c(C(=O)Nc4ccc(CN5CCOCC5)cc4)sc4ncnc2c34)c(Cl)cc1Cl [Cpd 44, 5-(2,4-dichloro-5-methoxy-phenyl)-4-oxo-4,5-dihydro-3H-1-thia-3,5,6,8-tetraaza-acenaphthylene-2-carboxylic acid (4-morpholin-1-ylmethyl-phenyl)-amide]	–	45%	–	49%	21%	26%
O=C(Nc1ccccc1)c1sc2ncnc3c2c1NC(=O)N3c1cccc(Br)c1 [Cpd 130, 5-(3-bromo-phenyl)-4-oxo-4,5-dihydro-3H-1-thia-3,5,6,8-tetraaza-acenaphthylene-2-carboxylic acid phenylamide]	> 100000 nM	-3%	191 nM	32%	–	–
COc1cc(NC(=O)c2sc3ncnc4c3c2NC(=O)N4c2cc(OC)c(OC)c(OC)c2Cl)ccc1OCC1CCCCO1 (stereo not shown) [Cpd 30, 5-(2-chloro-3,4,5-trimethoxy-phenyl)-4-oxo-4,5-dihydro-3H-1-thia-3,5,6,8-tetraaza-acenaphthylene-2-carboxylic acid [3-methoxy-4-(tetrahydro-pyran-2-ylmethoxy)-phenyl]-amide]	–	1%	19200 nM	-6%	19%	–
O=C(NCCCO)c1sc2ncnc3c2c1NC(=O)N3c1ccc(Oc2cccc(F)c2)cc1 [Cpd 133, 5-[4-(3-fluoro-phenoxy)-phenyl]-4-oxo-4,5-dihydro-3H-1-thia-3,5,6,8-tetraaza-acenaphthylene-2-carboxylic acid (3-hydroxy-propyl)-amide]	> 10000 nM	16%	34 nM	20%	0%	–
O=C(NCc1ccco1)c1sc2ncnc3c2c1NC(=O)N3c1ccc(N2CCOCC2)cc1 [Cpd 127, 5-(4-morpholin-4-yl-phenyl)-4-oxo-4,5-dihydro-3H-1-thia-3,5,6,8-tetraaza-acenaphthylene-2-carboxylic acid (furan-2-ylmethyl)-amide]	> 100000 nM	-2%	–	25%	–	0.5%
O=C(Nc1ccc(CN2CCOCC2)cc1)c1sc2ncnc3c2c1NC(=O)N3c1ccc(Cc2ccccc2)cc1 [Cpd 165, 5-(4-benzyl-phenyl)-4-oxo-4,5-dihydro-3H-1-thia-3,5,6,8-tetraaza-acenaphthylene-2-carboxylic acid (4-morpholin-4-ylmethyl-phenyl)-amide]	157 nM	29%	23 nM	39%	–	–
O=C(Nc1ccc(N2CCOCC2)cc1)c1sc2ncnc3c2c1NC(=O)N3c1ccc(N2CCOCC2)cc1 [Cpd 125, 5-(4-morpholin-4-yl-phenyl)-4-oxo-4,5-dihydro-3H-1-thia-3,5,6,8-tetraaza-acenaphthylene-2-carboxylic acid (4-morpholin-4-yl-phenyl)-amide]	> 100000 nM	5%	–	21%	–	20%
O=C(Nc1ccc(CN2CCCCC2)cc1)c1sc2ncnc3c2c1NC(=O)N3c1ccc(Oc2cccc(F)c2)cc1 [Cpd 131, 5-[4-(3-fluoro-phenoxy)-phenyl]-4-oxo-4,5-dihydro-3H-1-thia-3,5,6,8-tetraaza-acenaphthylene-2-carboxylic acid (4-piperidin-1-ylmethyl-phenyl)-amide]	84 nM	36%	10 nM	41%	91%	–
COc1ccc(NC(=O)c2sc3ncnc4c3c2NC(=O)N4c2ccc(Br)cc2F)cc1OC [Cpd 37, 5-(4-bromo-2-fluoro-phenyl)-4-oxo-4,5-dihydro-3H-1-thia-3,5,6,8-tetraaza-acenaphthylene-2-carboxylic acild (3,4-dimethoxy-phenyl)-amide]	–	11%	490 nM	-13%	1%	–
O=C(Nc1ccc(CN2CCCCC2)cc1)c1sc2ncnc3c2c1NC(=O)N3c1ccc(-c2ccc(Cl)cc2)cc1 [Cpd 139, 5-(4′-chloro-biphenyl-4-yl)-4-oxo-4,5-dihydro-3H-1-thia-3,5,6,8-tetraaza-acenaphthylene-2-carboxylic acid (4-piperidin-1-ylmethyl-phenyl)-amide]	> 100000 nM	28%	–	34%	–	18%
